Tests used:
Test in all cases: FRET-based coupled-enzyme protein kinase inhibition assay
Assay type in all cases: biochemical
Settings in all cases: compound at 10 µM, 1% DMSO
LCK = LCK (Homo sapiens, UniProt P06239)
Summary of the method: (§1)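 FRET peptide (coumarin donor, fluorescein acceptor) was phosphorylated by each kinase in 50 mM HEPES pH 7.5, 10 mM MgCl2, 1 mM EDTA, 0.01% BRIJ-35 for 60 min at room temperature. ATP was at apparent Km, compounds in 1% DMSO. Protease development reagent then cleaved non-phosphorylated peptide over 60 min.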

CSNK2A1 (CK2 alpha 1) = CSNK2A1 (CK2 alpha 1) (Homo sapiens, UniProt P68400)
Summary of the method: as §1

PLK1 = PLK1 (Homo sapiens, UniProt P53350)
Summary of the method: as §1

FLT3 = target: T1, FLT3 (Homo sapiens, UniProt P36888)
T1 sequence (P36888 27-993): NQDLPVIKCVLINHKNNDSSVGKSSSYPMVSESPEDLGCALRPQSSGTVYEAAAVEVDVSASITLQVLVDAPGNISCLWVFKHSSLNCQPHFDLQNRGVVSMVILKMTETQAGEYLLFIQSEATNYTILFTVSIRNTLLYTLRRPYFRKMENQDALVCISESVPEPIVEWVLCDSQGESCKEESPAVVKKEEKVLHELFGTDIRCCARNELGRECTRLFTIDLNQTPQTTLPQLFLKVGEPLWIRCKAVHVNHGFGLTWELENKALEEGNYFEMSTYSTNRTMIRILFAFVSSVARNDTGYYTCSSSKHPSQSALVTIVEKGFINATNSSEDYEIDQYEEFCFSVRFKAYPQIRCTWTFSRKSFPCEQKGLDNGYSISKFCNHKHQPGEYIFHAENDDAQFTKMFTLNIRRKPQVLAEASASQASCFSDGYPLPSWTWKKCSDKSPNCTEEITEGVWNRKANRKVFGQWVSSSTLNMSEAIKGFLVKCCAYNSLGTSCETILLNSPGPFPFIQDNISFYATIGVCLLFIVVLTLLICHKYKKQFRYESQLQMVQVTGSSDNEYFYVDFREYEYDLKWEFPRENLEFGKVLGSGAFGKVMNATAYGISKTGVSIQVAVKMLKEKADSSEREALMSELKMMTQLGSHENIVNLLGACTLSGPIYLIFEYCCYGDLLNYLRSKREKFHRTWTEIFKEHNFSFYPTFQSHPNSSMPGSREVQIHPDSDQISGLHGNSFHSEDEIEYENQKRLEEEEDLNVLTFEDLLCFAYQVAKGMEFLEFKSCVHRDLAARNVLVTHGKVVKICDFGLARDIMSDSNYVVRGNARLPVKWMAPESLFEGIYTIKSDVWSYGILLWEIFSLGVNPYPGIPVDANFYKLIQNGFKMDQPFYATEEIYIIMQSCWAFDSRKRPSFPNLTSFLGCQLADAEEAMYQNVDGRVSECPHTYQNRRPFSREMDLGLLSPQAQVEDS
Summary of the method: as §1

AMPK A1/B1/G1 = AMPK A1/B1/G1 (Homo sapiens, UniProt Q13131)
Summary of the method: as §1

PDGFRB (PDGFR beta) = PDGFRB (PDGFR beta) (Homo sapiens, UniProt P09619)
Summary of the method: as §1

EGFR (ErbB1) = EGFR (ErbB1) (Homo sapiens, UniProt P00533)
Summary of the method: as §1

BTK = BTK (Homo sapiens, UniProt Q06187)
Summary of the method: as §1

Sequence of PDGFRB (PDGFR beta) (P09619 33-1106, species assumed): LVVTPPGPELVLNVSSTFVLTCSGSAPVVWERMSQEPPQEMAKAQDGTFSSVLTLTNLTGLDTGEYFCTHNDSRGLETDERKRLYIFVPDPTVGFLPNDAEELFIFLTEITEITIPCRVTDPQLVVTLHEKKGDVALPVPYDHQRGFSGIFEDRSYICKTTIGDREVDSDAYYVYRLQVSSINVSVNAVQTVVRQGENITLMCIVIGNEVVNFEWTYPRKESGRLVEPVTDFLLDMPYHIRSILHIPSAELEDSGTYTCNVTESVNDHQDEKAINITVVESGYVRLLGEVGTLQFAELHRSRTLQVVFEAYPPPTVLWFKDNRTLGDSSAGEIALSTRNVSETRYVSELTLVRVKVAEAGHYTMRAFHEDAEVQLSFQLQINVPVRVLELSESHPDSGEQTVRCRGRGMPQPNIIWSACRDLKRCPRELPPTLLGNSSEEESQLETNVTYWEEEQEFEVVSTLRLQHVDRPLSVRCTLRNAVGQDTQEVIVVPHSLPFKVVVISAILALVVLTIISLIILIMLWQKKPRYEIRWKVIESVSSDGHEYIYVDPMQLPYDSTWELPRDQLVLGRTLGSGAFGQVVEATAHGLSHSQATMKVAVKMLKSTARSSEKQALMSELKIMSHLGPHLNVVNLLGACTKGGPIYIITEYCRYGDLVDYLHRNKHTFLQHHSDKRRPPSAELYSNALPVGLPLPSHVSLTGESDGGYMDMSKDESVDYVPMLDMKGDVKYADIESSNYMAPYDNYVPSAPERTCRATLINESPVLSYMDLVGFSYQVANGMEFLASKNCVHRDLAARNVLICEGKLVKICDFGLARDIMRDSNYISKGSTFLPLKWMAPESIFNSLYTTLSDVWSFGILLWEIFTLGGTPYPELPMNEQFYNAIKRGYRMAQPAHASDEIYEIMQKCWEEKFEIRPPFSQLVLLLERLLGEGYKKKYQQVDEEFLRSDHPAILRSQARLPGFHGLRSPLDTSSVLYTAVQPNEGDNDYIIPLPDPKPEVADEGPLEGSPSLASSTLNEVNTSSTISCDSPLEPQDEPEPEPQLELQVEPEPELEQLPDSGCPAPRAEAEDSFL
Sequence of BTK (Q06187 whole entry, species assumed): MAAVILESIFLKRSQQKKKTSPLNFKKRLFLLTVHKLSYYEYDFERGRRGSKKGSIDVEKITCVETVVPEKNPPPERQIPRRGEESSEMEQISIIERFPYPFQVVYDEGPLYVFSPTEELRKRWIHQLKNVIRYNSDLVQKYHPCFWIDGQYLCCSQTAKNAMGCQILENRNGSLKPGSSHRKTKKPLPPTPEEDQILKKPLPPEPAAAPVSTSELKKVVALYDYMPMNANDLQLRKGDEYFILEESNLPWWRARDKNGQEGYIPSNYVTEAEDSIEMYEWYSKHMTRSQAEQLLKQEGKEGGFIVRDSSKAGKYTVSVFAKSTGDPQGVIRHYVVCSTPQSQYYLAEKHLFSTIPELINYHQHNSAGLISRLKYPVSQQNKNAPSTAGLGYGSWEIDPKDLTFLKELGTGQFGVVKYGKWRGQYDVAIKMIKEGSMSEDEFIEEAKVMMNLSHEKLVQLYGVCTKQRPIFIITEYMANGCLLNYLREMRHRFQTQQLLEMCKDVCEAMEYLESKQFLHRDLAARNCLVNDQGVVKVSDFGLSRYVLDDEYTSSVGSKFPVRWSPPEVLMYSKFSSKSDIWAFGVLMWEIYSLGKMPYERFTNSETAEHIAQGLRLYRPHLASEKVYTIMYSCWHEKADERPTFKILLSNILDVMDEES
Sequence of CSNK2A1 (CK2 alpha 1) (P68400 whole entry, species assumed): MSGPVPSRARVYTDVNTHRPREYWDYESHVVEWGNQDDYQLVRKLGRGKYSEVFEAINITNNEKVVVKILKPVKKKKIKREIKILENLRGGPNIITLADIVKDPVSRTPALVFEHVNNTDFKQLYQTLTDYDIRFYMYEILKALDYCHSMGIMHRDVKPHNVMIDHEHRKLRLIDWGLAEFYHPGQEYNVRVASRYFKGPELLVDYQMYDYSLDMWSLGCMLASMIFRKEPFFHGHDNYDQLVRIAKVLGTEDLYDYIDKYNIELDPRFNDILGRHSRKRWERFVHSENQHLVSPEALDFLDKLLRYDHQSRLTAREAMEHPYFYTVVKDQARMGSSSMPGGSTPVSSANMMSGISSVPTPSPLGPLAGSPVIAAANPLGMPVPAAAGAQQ
Sequence of LCK (P06239 whole entry, species assumed): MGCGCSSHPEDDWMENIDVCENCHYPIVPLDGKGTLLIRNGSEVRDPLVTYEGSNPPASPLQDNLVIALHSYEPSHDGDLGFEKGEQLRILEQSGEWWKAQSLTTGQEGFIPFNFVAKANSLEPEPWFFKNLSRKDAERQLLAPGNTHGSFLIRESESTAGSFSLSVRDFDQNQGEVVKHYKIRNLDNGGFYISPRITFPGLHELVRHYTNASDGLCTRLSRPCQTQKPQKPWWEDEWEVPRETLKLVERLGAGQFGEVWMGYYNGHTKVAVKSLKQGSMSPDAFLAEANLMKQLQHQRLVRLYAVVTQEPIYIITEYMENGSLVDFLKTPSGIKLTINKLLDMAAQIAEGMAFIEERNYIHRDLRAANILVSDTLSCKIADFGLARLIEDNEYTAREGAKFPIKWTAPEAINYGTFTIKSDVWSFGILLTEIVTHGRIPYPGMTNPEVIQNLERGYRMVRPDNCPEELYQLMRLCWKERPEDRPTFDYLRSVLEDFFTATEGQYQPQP
Sequence of EGFR (ErbB1) (P00533 25-1210, species assumed): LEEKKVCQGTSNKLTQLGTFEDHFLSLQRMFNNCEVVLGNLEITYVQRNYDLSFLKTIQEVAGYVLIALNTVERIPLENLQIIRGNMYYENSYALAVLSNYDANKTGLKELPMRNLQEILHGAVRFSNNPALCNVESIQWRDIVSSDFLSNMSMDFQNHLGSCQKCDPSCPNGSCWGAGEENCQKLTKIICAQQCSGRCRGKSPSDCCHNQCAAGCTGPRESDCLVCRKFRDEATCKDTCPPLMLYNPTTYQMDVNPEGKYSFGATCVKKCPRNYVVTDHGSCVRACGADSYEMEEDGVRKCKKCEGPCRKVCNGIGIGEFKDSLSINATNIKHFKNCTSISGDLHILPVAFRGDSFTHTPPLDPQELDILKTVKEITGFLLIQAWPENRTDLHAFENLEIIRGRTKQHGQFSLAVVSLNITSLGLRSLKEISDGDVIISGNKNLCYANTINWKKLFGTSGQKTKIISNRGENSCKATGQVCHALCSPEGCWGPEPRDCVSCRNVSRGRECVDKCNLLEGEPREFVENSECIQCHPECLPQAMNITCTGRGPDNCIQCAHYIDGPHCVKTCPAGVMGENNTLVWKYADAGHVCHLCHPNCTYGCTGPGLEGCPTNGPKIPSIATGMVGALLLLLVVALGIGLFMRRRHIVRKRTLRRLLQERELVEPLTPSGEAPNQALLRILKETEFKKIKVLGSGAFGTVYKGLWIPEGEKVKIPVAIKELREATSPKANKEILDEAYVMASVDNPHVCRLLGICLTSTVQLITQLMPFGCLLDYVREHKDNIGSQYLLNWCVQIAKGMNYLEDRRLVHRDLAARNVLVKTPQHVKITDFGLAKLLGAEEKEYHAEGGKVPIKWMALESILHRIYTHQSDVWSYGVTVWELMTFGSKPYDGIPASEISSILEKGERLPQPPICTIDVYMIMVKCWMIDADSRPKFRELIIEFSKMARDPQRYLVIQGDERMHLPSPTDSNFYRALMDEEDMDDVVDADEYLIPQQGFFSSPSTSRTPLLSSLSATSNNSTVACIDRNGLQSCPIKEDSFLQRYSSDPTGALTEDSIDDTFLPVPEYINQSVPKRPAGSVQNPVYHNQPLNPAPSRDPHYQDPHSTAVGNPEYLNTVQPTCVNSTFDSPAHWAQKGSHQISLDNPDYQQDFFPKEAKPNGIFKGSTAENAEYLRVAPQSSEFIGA
Sequence of PLK1 (P53350 whole entry, species assumed): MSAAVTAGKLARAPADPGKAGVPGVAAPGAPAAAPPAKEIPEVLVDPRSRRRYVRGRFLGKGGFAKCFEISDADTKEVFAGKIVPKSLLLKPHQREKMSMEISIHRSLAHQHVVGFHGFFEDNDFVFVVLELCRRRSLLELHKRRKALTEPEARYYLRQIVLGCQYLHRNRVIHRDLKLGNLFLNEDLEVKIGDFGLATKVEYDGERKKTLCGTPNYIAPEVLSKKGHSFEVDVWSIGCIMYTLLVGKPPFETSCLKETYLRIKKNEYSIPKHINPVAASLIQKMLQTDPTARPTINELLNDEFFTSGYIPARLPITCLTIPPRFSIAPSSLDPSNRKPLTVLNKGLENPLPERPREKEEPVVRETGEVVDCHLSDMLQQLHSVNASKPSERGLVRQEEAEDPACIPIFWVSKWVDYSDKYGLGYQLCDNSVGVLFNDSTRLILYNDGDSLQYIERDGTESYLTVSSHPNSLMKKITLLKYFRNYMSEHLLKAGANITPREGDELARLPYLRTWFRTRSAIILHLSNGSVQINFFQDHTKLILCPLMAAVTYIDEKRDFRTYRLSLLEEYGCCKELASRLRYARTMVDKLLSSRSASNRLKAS

| inhibition at 10 µM (LCK) [%] | inhibition at 10 µM (CSNK2A1 (CK2 alpha 1)) [%] | inhibition at 10 µM (PLK1) [%] | inhibition at 10 µM (FLT3) [%] | inhibition at 10 µM (AMPK A1/B1/G1) [%] | inhibition at 10 µM (PDGFRB (PDGFR beta)) [%] | inhibition at 10 µM (EGFR (ErbB1)) [%] | inhibition at 10 µM (BTK) [%] | SMILES |
| --- | --- | --- | --- | --- | --- | --- | --- | --- |
| 62 | 2 | -13 | 13 | 11 | 7 | 27 | 7 | Nc1ncnc2c1ncn2[C@@H]1O[C@H](COC(=O)N[C@@H]2CCN(Cc3ccccc3)C2)[C@@H](O)[C@H]1O [Compound C10] |
| 19 | 5 | -1 | 8 | 4 | -1 | -2 | 9 | Nc1ncnc2c1ncn2[C@@H]1O[C@H](COC(=O)N2CCC[C@H]2CO)[C@@H](O)[C@H]1O [Compound C9] |
| 15 | 2 | -5 | 9 | 4 | 4 | 11 | -1 | Nc1ncnc2c1ncn2[C@@H]1O[C@H](COC(=O)NCCN2CCCC2=O)[C@@H](O)[C@H]1O [Compound C22] |
| 57 | -5 | -5 | 20 | 14 | 4 | 31 | 11 | Nc1ncnc2c1ncn2[C@@H]1O[C@H](COC(=O)N2CCC(Cc3ccc(F)cc3)C2)[C@@H](O)[C@H]1O (some centres unmarked) [Compound C66] |
| 9 | 8 | -10 | 10 | 2 | 9 | 28 | 4 | Nc1ncnc2c1ncn2[C@@H]1O[C@H](COC(=O)N2CCN(C(=O)N3CCOCC3)CC2)[C@@H](O)[C@H]1O [Compound C89] |
| 32 | 5 | -6 | 23 | 5 | 6 | 17 | -1 | CC(C)N1CCC(NC(=O)OC[C@H]2O[C@@H](n3cnc4c(N)ncnc43)[C@H](O)[C@@H]2O)CC1 [Compound C19] |
| 9 | 5 | -11 | 9 | 4 | 4 | 8 | -5 | Nc1ncnc2c1ncn2[C@@H]1O[C@H](COC(=O)N2CCS(=O)(=O)CC2)[C@@H](O)[C@H]1O [Compound C100] |
| 84 | 2 | -7 | 13 | 9 | 10 | 5 | 16 | CS(=O)(=O)N1CC2(CCN(C(=O)OC[C@H]3O[C@@H](n4cnc5c(N)ncnc54)[C@H](O)[C@@H]3O)CC2)c2ccccc21 [Compound C98] |
| 25 | 7 | -3 | 12 | 4 | 8 | 20 | 0 | CN(C)CCNC(=O)OC[C@H]1O[C@@H](n2cnc3c(N)ncnc32)[C@H](O)[C@@H]1O [Compound C85] |
| 11 | 4 | 0 | 7 | 8 | 4 | -1 | 1 | N#CCCN1CCN(C(=O)OC[C@H]2O[C@@H](n3cnc4c(N)ncnc43)[C@H](O)[C@@H]2O)CC1 [Compound C70] |
| 57 | 3 | -8 | 18 | 3 | 1 | 13 | 0 | Nc1ncnc2c1ncn2[C@@H]1O[C@H](COC(=O)N2CCN(CCc3ccccc3)CC2)[C@@H](O)[C@H]1O [Compound C26] |
| 60 | 8 | -3 | 19 | 17 | 5 | 22 | 2 | C[C@@H](NC(=O)OC[C@H]1O[C@@H](n2cnc3c(N)ncnc32)[C@H](O)[C@@H]1O)c1ccc(Cl)cc1 [Compound C4] |
| 44 | 3 | -12 | 12 | 6 | 6 | 8 | 9 | Nc1ncnc2c1ncn2[C@@H]1O[C@H](COC(=O)N2CCN(Cc3ccccc3)CC2CO)[C@@H](O)[C@H]1O (some centres unmarked) [Compound C13] |
| 13 | 5 | -5 | 10 | 4 | 1 | 14 | 0 | CN1CCN(CCNC(=O)OC[C@H]2O[C@@H](n3cnc4c(N)ncnc43)[C@H](O)[C@@H]2O)CC1 [Compound C46] |
| 26 | 5 | -1 | 12 | 17 | 5 | 14 | 4 | Nc1ncnc2c1ncn2[C@@H]1O[C@H](COC(=O)NC[C@H](O)CO)[C@@H](O)[C@H]1O [Compound C8] |
| 72 | -5 | -8 | 6 | 17 | 1 | 34 | 9 | Nc1ncnc2c1ncn2[C@@H]1O[C@H](COC(=O)NCCCc2nc3ccccc3[nH]2)[C@@H](O)[C@H]1O [Compound C1] |
